Data as given in PMC9611977 (Toxins, 2022).
Bridge positions count the residues as written; N and C are the ends. Ends that are not written are not given here.

Experiments:
[1] = system: muscle α1β1δε nAChR; parameters: method as in PMID 16571968; conditions: read-out: EC50 of ACh for α1β1δε; cited from earlier work
[2] = target: T1, rat ASIC3 (Rattus norvegicus, UniProt O35240); assay: two-electrode voltage clamp on rASIC3 expressed in X. laevis oocytes; format: cell-based
T1 construct: expressed in transfected cells; host or cells: Xenopus laevis oocytes (cRNA injection)
T1 sequence (O35240 1-533): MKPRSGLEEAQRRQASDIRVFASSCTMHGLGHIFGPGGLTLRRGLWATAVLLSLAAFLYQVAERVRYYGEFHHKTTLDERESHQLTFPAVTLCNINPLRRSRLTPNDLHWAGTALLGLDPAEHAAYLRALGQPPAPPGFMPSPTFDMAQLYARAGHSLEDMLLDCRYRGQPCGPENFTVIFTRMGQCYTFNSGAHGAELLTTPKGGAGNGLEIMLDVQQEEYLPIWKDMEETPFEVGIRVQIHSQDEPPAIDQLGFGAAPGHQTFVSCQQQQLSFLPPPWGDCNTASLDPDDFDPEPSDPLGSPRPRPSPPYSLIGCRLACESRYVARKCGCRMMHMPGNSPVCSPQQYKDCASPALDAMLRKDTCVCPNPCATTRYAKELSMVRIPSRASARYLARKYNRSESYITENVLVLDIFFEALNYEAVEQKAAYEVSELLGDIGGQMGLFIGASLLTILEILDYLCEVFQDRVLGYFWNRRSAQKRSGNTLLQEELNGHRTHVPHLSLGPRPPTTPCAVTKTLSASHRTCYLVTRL
Description: (§1) Rat ASIC1a and ASIC3 channels were expressed in X. laevis oocytes after injection of 2.5–10 ng of cRNA, as previously described. After injection oocytes were kept for 2–3 days at 19 °C and then up to 5 days at the temperature of 15–16 °C in sterile ND96 medium (96 mM NaCl, 2 mM KCl, 1.8 mM CaCl2, 1 mM MgCl2, 5 mM HEPES titrated to pH 7.4 with NaOH supplemented with 50 μg/mL of gentamycin). Two-electrode voltage clamp recordings were performed using GeneClamp 500 amplifier (Axon Instruments, Burlingame, CA, USA). The data were filtered at 50 Hz and digitized at 1000 Hz by an AD converter L780 (LCard, Moscow, Russia) using in-house software (Moscow). The solutions were applied to a cell chamber (volume 50 μL). The laminar flow of an external solution of ND96 (pH 7.4) was used at a rate of 1 mL/min. ASIC1a and ASIC3 were activated by a short (1 s) application of a solution with a pH 5.5 (10 mM MES) using a fast application system. Peptides were applied 15 s before the activation pulse in a solution containing 0.1% BSA. A value of currents inhibition was calculated as the ratio of the peak current amplitude, when the peptide was applied to the average amplitude of the control peak currents before and after the peptide application and expressed as a percentage. To construct the concentration-response curves, a logistic equation was the following: y = ((1 − A)/(1 + ([C]/IC50)^nH)) + A; where y is the relative value of current inhibition; C is the peptide concentration; IC50 is the half maximal inhibitory concentration; nH is the Hill coefficient; A is an amplitude of maximum inhibition (% of control).

[3] = system: rat ASIC1a; assay: two-electrode voltage clamp on rASIC1a expressed in X. laevis oocytes; format: cell-based; conditions: maximal applied concentration 100 μM; pH drop 7.4 to 5.5
Description: as §1, with “To construct the concentration-response curves, a logistic equation was the following: y = ((1 − A)/(1 + ([C]/IC50)^nH)) + A; where y is the relative value of current inhibition; C is the peptide concentration; IC50 is the half maximal inhibitory concentration; nH is the Hill coefficient; A is an amplitude of maximum inhibition (% of control).” left out

CC(=O)OCC[N+](C)(C)C [ACh, acetylcholine]
EC50 [1]: ~5 µM

GTPCKCLGYTGVYWFMITRCPNGHGYNLSCPYFLGVCCVKK (disulfide 4-37, 6-30, 20-38) [Hmg 1b-5]
IC50 [2]: 13.8 ± 0.6 µM | maximal inhibitory effect on rASIC3 acid-induced current ([2]; 100 μM peptide, pH drop 7.4 to 5.5): about 78% | Hill coefficient nH, rASIC3 inhibition ([2]; logistic fit, n = 5): 1.22 ± 0.04 | Iminimal, rASIC3 concentration-response fit ([2]; logistic fit, n = 5, amplitude of maximum inhibition (% of control)): 22.4 ± 1.3 | inhibition of rASIC1a current [3]: 17%
